Measurements published in PMC7367283, “A PIP2 substitute mediates voltage sensor-pore coupling in KCNQ activation” (Communications Biology, 2020).
Where “and” joins values, the source holds several entries; their conditions need not be identical. Equal values may be shown once.

Biological target: IKs (KCNQ1 + KCNE1) (Homo sapiens, UniProt P51787)
Test: Two-electrode voltage clamp of IKs channels expressed in Xenopus oocytes
Type: cell-based
Design: key to G/Gcontrol(max): conductance / max control conductance (control max = 1)
Details: for Current: Fig. 4g; for ∆V1/2 of activation induced by CP1 (mean): Fig. 4i dose response; for G/Gcontrol(max): Fig. 4h
Text: Our previous studies have shown that the VSD of KCNQ1 activates to an intermediate state (I state) and an activated state (A state) upon membrane depolarization, and the pore can open when VSD is at either the intermediate (IO state) or activated (AO state)[23],[24]. The association of the auxiliary subunit KCNE1 with KCNQ1 affects VSD-pore coupling to suppress the IO state and enhance the AO state. Correspondingly, the association of KCNE1 also increases the PIP2 sensitivity of the channel[24],[37]. […] The most prominent effect of CP1 is to dramatically slow the deactivation of IKs, such that at 2 µM CP1, it took a 100-s interval at −120 mV for all the channels to deactivate from their previous activation (Fig. 4a). The application of 2 µM CP1 shifted the G–V relation to more negative voltages by ~13 mV (Fig. 4b). […] A fraction of the constitutively open channels might have been open during the previous test pulses and not deactivated during the shorter and less-hyperpolarized interval pulse to cause a current accumulation. […] In higher concentrations of CP1, we were not able to suppress the constitutive opening of KCNQ1 channels even with long and negative interval voltages, so that we used 20-s and −80-mV interval pulses in the recordings (Fig. 4e). […] In comparison with KCNQ1 expressed alone, CP1 caused a larger shift of the G–V relationship when KCNE1 was co-expressed (Fig. 4i). Since the IKs currents were difficult to measure accurately at high CP1 concentrations, we were unable to determine the EC50 of the channel response to CP1.
Fig. 4 Effects of CP1 on IKs channels. a, b IKs currents in the absence (left) and presence of 2 µM CP1 (right) recorded with 100-s and −120-mV interval pulses between testing voltages. Holding potential: −80 mV; testing potential: −120 to +80 mV; returning potential: −40 mV (a). G–V relations (b). c, d IKs recorded at the same conditions as in (a), except for the interval pulses, was 20 s at −80 mV. e, f IKs in the absence or presence of 10 µM CP1. The voltage protocol was the same as in (b). g, h Current (g) and relative conductance (h) increases of IKs channels by 10 µM CP1. In h, the measured conductance in CP1 at all voltages was divided by the maximum measured conductance in control, and then normalized with the maximum measured conductance in control being 1. i Dose response for ΔV1/2 of G–V relations to different CP1 concentrations as compared with those of KCNQ1 (dashed line).
The use of Xenopus laevis to obtain oocytes was approved by the Washington University Animal Studies Committee (protocol #20190030). Oocytes were manually dispersed and digested with collagenase (0.5 mg/ml, Sigma-Aldrich, Saint Louis, MO) to remove the follicle cell layer. Stage V or VI oocytes were selected and injected with cRNAs (9.2 ng) of channel or mutations. Especially, to characterize IKs, a mix of cRNAs at a molar ratio 4:1 (KCNQ1:KCNE1) was injected. For KCNQ2/KCNQ3, the molar ratio was 1:1 (KCNQ2:KCNQ3). For sodium channels, a 3:1 molar ratio (β1:NaV1.5) and for calcium channels a weight ratio 1:1:1 (β1:α2/δ1:CaV1.2) was injected, respectively. Injected oocytes were incubated in ND96 solution containing (in mM) 96 NaCl, 2 KCl, 1.8 CaCl2, 1 MgCl2, and 5 HEPES, pH 7.6, supplemented with 2.5 mM Na pyruvate and 1% penicillin–streptomycin, at 18 °C for 3–7 days before recording.
The whole-oocyte ionic currents were recorded with a GeneClamp 500B amplifier (Axon Instruments, CA) or iTEV90 amplifier (HEKA, Germany) and then sampled at 1 kHz and low-pass-filtered at 2 kHz. The Patchmaster software (HEKA, Germany) was used to acquire data. The Kir1.1 current was recorded with a high K^+ bath solution containing (in mM) 96 KCl, 4 NaCl, 1 CaCl2, 2 MgCl2, and 10 HEPES, pH 7.3–7.4. The HCN4 current was recorded in ND66 solution containing (in mM) 66 NaCl, 32 KCl, 1.8 CaCl2, 1 MgCl2, and 5 HEPES, pH 7.6. All the other potassium channels were recorded in ND96 solution. […]

shift of G–V relation (2 µM CP1, 20-s and −80-mV interval pulses): ~ 12 mV
shift of G–V relation to more negative voltages (2 µM CP1, 100-s and −120-mV interval pulses): ~ 13 mV
G/Gmax Mean (Fig. 4b, 2 µM CP1, 0 mV): 0.3833
G/Gmax Mean (Fig. 4b, 2 µM CP1, 20 mV): 0.7035
G/Gmax Mean (Fig. 4b, 2 µM CP1, 40 mV): 0.9619
G/Gmax Mean (Fig. 4b, 2 µM CP1, 60 mV): 1.0000
G/Gmax Mean (Fig. 4b, 2 µM CP1, -20 mV): 0.1567
G/Gmax Mean (Fig. 4b, 2 µM CP1, -40 mV): 0.0500
G/Gmax Mean (Fig. 4b, 2 µM CP1, -60 mV): 0.0188
G/Gmax Mean (Fig. 4b, 2 µM CP1, -80 mV): 0.0090
G/Gmax Mean (Fig. 4b, 2 µM CP1, -100 mV): 0.0050
G/Gmax Mean (Fig. 4b, 2 µM CP1, -120 mV): 0.0140
G/Gmax Mean (Fig. 4f, 10 µM CP1, 0 mV): 0.9498
G/Gmax Mean (Fig. 4f, 10 µM CP1, 10 mV): 0.9622
G/Gmax Mean (Fig. 4f, 10 µM CP1, 20 mV): 0.9768
G/Gmax Mean (Fig. 4f, 10 µM CP1, 30 mV): 0.9888
G/Gmax Mean (Fig. 4f, 10 µM CP1, 40 mV): 0.9959
G/Gmax Mean (Fig. 4f, 10 µM CP1, 50 mV): 1.0000
G/Gmax Mean (Fig. 4f, 10 µM CP1, 60 mV): 0.9995
G/Gmax Mean (Fig. 4f, 10 µM CP1, 70 mV): 0.9975
G/Gmax Mean (Fig. 4f, 10 µM CP1, 80 mV): 0.9882
G/Gmax Mean (Fig. 4f, 10 µM CP1, -10 mV): 0.9293
G/Gmax Mean (Fig. 4f, 10 µM CP1, -20 mV): 0.9108
G/Gmax Mean (Fig. 4f, 10 µM CP1, -30 mV): 0.8947
G/Gmax Mean (Fig. 4f, 10 µM CP1, -40 mV): 0.8796
G/Gmax Mean (Fig. 4f, 10 µM CP1, -50 mV): 0.8652
G/Gmax Mean (Fig. 4f, 10 µM CP1, -60 mV): 0.8490
G/Gmax Mean (Fig. 4f, 10 µM CP1, -70 mV): 0.8309
G/Gmax Mean (Fig. 4f, 10 µM CP1, -80 mV): 0.8109
G/Gmax Mean (Fig. 4f, 10 µM CP1, -90 mV): 0.7850
G/Gmax Mean (Fig. 4f, 10 µM CP1, -100 mV): 0.7801
G/Gmax Mean (Fig. 4f, 10 µM CP1, -110 mV): 0.7703
G/Gmax Mean (Fig. 4f, 10 µM CP1, -120 mV): 0.7614
Current (10 µM CP1, 0 mV): 11.3690 µA
Current (10 µM CP1, 10 mV): 13.1145 µA
Current (10 µM CP1, 20 mV): 14.8276 µA
Current (10 µM CP1, 30 mV): 16.4399 µA
Current (10 µM CP1, 40 mV): 17.8196 µA
Current (10 µM CP1, 50 mV): 18.8339 µA
Current (10 µM CP1, 60 mV): 19.4658 µA
Current (10 µM CP1, 70 mV): 19.7856 µA
Current (10 µM CP1, 80 mV): 19.9691 µA
Current (10 µM CP1, -10 mV): 9.6451 µA
Current (10 µM CP1, -20 mV): 8.0042 µA
Current (10 µM CP1, -30 mV): 6.4510 µA
Current (10 µM CP1, -40 mV): 5.0169 µA
Current (10 µM CP1, -50 mV): 3.6974 µA
Current (10 µM CP1, -60 mV): 2.5078 µA
Current (10 µM CP1, -70 mV): 1.4333 µA
Current (10 µM CP1, -80 mV): 0.5290 µA
Current (10 µM CP1, -90 mV): -0.3014 µA
Current (10 µM CP1, -100 mV): -0.9865 µA
Current (10 µM CP1, -110 mV): -1.5545 µA
Current (10 µM CP1, -120 mV): -2.0910 µA
∆V1/2 of activation induced by CP1 (mean) ([CP1] 1 µM): 14.4504 mV
∆V1/2 of activation induced by CP1 (mean) ([CP1] 2 µM): 15.8525 mV
∆V1/2 of activation induced by CP1 (mean) ([CP1] 3 µM): 21.4391 mV
∆V1/2 of activation induced by CP1 (mean) ([CP1] 5 µM): 41.6182 mV
∆V1/2 of activation induced by CP1 (mean) ([CP1] 6 µM): 46.8783 mV
∆V1/2 of activation induced by CP1 (mean) ([CP1] 10 µM): 97.2701 mV
∆V1/2 of activation induced by CP1 (mean) ([CP1] 15 µM): 120.8217 mV
∆V1/2 of activation induced by CP1 (mean) ([CP1] 20 µM): 143.8484 mV
∆V1/2 of activation induced by CP1 (mean) ([CP1] 25 µM): 174.0381 mV
G/Gcontrol(max) (10 µM CP1, 0 mV): 2.2457
G/Gcontrol(max) (10 µM CP1, 10 mV): 2.2822
G/Gcontrol(max) (10 µM CP1, 20 mV): 2.3257
G/Gcontrol(max) (10 µM CP1, 30 mV): 2.3635
G/Gcontrol(max) (10 µM CP1, 40 mV): 2.3895
G/Gcontrol(max) (10 µM CP1, 50 mV): 2.4063
G/Gcontrol(max) (10 µM CP1, 60 mV): 2.4120
G/Gcontrol(max) (10 µM CP1, 70 mV): 2.4121
G/Gcontrol(max) (10 µM CP1, 80 mV): 2.3902
G/Gcontrol(max) (10 µM CP1, -10 mV): 2.1869
G/Gcontrol(max) (10 µM CP1, -20 mV): 2.1346
G/Gcontrol(max) (10 µM CP1, -30 mV): 2.0892
G/Gcontrol(max) (10 µM CP1, -40 mV): 2.0471
G/Gcontrol(max) (10 µM CP1, -50 mV): 2.0074
G/Gcontrol(max) (10 µM CP1, -60 mV): 1.9645
G/Gcontrol(max) (10 µM CP1, -70 mV): 1.9185
G/Gcontrol(max) (10 µM CP1, -80 mV): 1.8692
G/Gcontrol(max) (10 µM CP1, -90 mV): 1.8061
G/Gcontrol(max) (10 µM CP1, -100 mV): 1.7954
G/Gcontrol(max) (10 µM CP1, -110 mV): 1.7738
G/Gcontrol(max) (10 µM CP1, -120 mV): 1.7540
G/Gmax Mean (Fig. 4d, 2 µM CP1, 0 mV): 0.2264
G/Gmax Mean (Fig. 4d, 2 µM CP1, 20 mV): 0.4604
G/Gmax Mean (Fig. 4d, 2 µM CP1, 40 mV): 0.7375
G/Gmax Mean (Fig. 4d, 2 µM CP1, 60 mV): 0.9406
G/Gmax Mean (Fig. 4d, 2 µM CP1, 80 mV): 1.0000
G/Gmax Mean (Fig. 4d, 2 µM CP1, -20 mV): 0.0874
G/Gmax Mean (Fig. 4d, 2 µM CP1, -40 mV): 0.0291
G/Gmax Mean (Fig. 4d, 2 µM CP1, -60 mV): 0.0147
G/Gmax Mean (Fig. 4d, 2 µM CP1, -80 mV): 0.0247
G/Gmax Mean (Fig. 4d, 2 µM CP1, -100 mV): 0.0692
Structure (SMILES): O=S(=O)([O-])Oc1c(-c2sc3c(ccc4cccc(Cl)c43)c2OS(=O)(=O)[O-])[nH]c2ccc(Br)cc12.[Na+].[Na+] [CP1, DISODIUM 5-BROMO-2-[9-CHLORO-3-(SULFONATOOXY) NAPHTHO [1,2-B] THIEN-2-YL]-1H-INDOL-3-YL SULFATE]
outward current (Icp1/Ictrl) (10 µM CP1, Q1/E1, at +40 mV, individual oocytes): 3.3641 and 3.7408 and 2.3715 and 2.9989 and 4.6393
∆V1/2 (10 µM CP1, Q1/E1, individual oocytes): 64.6738 mV and 84.3167 mV and 109.16 mV and 34.9084 mV and 123.145 mV
τ deact at -120 mV (10 µM CP1 treated, Q1/E1, individual oocytes): 3.5736 s and 3.9322 s and 2.999 s and 3.0124 s and 2.7649 s and 3.45 s and 3.7957 s
